# Measured values reported in paper PMC3223731, “Environment sensing and response mediated by ABC transporters” (BMC Genomics, 2011).
# Assays:
# Assay type in all cases: binding
# RPA0668 (hbaE) = target: T1, RPA0668 (hbaE) (Rhodopseudomonas palustris, UniProt G3XCQ4); experiment: fluorescence thermal shift (SYPRO orange); conditions: 100x ligand over protein (5 or 10 µM protein); 100 mM HEPES, 150 mM NaCl, pH 7.5
# T1 construct: mature form, signal peptide removed; N-terminal 6xHis-TEV tag retained; E. coli
# T1 sequence (G3XCQ4 entry or part of it): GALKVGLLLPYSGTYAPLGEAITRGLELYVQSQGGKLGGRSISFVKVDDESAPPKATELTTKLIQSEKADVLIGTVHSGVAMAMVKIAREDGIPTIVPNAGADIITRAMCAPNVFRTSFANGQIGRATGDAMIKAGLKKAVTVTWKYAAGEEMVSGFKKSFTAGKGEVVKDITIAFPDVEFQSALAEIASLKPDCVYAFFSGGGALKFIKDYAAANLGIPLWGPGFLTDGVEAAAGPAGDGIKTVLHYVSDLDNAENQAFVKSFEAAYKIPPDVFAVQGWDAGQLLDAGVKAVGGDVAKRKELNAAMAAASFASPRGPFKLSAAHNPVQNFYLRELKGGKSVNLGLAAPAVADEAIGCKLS
# RPA0985 = target: T2, RPA0985 (Rhodopseudomonas palustris, UniProt Q6NB45); experiment: fluorescence thermal shift (SYPRO orange); conditions: 100x ligand over protein (5 or 10 µM protein); 100 mM HEPES, 150 mM NaCl, pH 7.5
# T2 construct: mature form, signal peptide removed; N-terminal 6xHis-TEV tag retained; E. coli
# T2 sequence (Q6NB45 23-390): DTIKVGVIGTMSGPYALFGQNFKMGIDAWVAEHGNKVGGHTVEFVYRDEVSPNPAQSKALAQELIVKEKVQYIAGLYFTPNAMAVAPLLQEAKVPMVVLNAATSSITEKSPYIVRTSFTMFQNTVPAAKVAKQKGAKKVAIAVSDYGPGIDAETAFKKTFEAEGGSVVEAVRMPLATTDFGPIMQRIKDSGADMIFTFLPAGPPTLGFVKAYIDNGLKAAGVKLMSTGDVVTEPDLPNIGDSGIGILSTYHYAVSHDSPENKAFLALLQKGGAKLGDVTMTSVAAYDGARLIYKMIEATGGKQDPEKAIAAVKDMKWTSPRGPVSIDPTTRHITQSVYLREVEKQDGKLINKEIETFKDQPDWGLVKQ
# RPA4029 = target: T3, RPA4029 (Rhodopseudomonas palustris, UniProt Q6N2M1); experiment: fluorescence thermal shift (SYPRO orange); conditions: 100x ligand over protein (5 or 10 µM protein); 100 mM HEPES, 150 mM NaCl, pH 7.5
# T3 construct: gene TX73_020875; mature form, signal peptide removed; N-terminal 6xHis-TEV tag retained; E. coli
# T3 sequence (Q6N2M1 28-392): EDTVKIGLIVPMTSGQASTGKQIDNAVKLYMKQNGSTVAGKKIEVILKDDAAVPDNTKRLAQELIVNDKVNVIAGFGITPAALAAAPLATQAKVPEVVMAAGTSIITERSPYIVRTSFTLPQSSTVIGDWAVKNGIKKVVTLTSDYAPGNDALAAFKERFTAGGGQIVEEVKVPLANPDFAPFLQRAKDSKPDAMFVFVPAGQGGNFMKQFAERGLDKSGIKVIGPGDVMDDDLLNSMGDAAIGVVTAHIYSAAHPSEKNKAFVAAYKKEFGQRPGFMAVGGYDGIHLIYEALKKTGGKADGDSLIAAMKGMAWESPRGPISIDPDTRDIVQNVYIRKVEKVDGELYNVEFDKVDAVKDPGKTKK
# RPA1789 = target: T4, RPA1789 (Rhodopseudomonas palustris, UniProt Q6N8W4); experiment: fluorescence thermal shift (SYPRO orange); conditions: 100x ligand over protein (5 or 10 µM protein); 100 mM HEPES, 150 mM NaCl, pH 7.5
# T4 construct: mature form, signal peptide removed; N-terminal 6xHis-TEV tag retained; E. coli
# T4 sequence (Q6N8W4 27-385): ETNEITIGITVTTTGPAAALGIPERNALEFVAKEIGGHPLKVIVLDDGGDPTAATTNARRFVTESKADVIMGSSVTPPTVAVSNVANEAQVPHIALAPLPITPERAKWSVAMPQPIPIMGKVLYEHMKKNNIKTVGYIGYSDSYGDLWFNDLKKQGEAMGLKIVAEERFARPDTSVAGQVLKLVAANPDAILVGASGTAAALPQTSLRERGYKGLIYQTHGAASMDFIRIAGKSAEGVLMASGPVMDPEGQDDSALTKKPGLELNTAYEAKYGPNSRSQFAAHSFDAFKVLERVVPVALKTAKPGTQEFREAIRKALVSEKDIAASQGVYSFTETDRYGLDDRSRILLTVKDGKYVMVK
# RPA0058 = target: T5, RPA0058 (Rhodopseudomonas palustris, UniProt Q6NDP7); experiment: fluorescence thermal shift (SYPRO orange); conditions: 100x ligand over protein (5 or 10 µM protein); 100 mM HEPES, 150 mM NaCl, pH 7.5
# T5 construct: gene ugpB; mature form, signal peptide removed; N-terminal 6xHis-TEV tag retained; E. coli
# T5 sequence (Q6NDP7 24-442): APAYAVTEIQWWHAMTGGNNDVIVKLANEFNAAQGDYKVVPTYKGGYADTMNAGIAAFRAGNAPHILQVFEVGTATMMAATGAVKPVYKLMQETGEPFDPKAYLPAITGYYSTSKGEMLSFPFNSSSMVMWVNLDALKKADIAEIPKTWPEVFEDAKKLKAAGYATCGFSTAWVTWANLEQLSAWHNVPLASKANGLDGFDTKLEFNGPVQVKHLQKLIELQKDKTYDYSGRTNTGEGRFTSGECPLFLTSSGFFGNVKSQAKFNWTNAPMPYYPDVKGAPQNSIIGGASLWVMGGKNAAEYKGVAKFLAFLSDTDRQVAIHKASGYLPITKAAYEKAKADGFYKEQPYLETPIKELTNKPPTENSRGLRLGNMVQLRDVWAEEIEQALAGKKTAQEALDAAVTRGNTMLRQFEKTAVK
# RPA3810 = target: T6, RPA3810 (Rhodopseudomonas palustris, UniProt Q6N384); experiment: fluorescence thermal shift (SYPRO orange); conditions: 100x ligand over protein (5 or 10 µM protein); 100 mM HEPES, 150 mM NaCl, pH 7.5
# T6 construct: gene TX73_019730; mature form, signal peptide removed; N-terminal 6xHis-TEV tag retained; E. coli
# T6 sequence (Q6N384 23-368): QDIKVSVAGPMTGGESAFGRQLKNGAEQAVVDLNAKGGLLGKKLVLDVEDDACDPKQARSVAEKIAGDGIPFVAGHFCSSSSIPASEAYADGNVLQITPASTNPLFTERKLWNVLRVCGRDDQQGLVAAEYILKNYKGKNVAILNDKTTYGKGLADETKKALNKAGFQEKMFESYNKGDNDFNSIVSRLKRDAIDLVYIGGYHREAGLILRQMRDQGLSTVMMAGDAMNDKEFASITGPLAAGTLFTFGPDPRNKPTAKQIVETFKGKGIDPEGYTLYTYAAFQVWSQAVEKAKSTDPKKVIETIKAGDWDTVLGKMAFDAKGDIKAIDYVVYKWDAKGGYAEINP
# RPA4780 = target: T7, RPA4780 (Rhodopseudomonas palustris, UniProt Q6N0I2); conditions: 100x ligand over protein (5 or 10 µM protein); 100 mM HEPES, 150 mM NaCl, pH 7.5
# T7 construct: gene pstS; mature form, signal peptide removed; N-terminal 6xHis-TEV tag retained; E. coli
# T7 sequence (Q6N0I2 22-336): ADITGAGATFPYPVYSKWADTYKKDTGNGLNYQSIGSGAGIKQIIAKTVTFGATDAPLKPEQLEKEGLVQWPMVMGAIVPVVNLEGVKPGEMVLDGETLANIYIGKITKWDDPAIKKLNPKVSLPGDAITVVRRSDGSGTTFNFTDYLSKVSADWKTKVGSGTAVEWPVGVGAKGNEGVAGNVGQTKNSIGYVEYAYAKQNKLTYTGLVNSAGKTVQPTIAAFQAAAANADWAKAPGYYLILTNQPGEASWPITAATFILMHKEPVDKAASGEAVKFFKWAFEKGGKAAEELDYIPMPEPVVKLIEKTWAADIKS
# RPA2014 = target: T8, RPA2014 (Rhodopseudomonas palustris, UniProt Q6N890); experiment: fluorescence thermal shift (SYPRO orange); conditions: 100x ligand over protein (5 or 10 µM protein), 100 mM HEPES, 150 mM NaCl, pH 7.5
# T8 construct: gene TX73_010380; mature form, signal peptide removed; N-terminal 6xHis-TEV tag retained; E. coli
# T8 sequence (Q6N890 31-371): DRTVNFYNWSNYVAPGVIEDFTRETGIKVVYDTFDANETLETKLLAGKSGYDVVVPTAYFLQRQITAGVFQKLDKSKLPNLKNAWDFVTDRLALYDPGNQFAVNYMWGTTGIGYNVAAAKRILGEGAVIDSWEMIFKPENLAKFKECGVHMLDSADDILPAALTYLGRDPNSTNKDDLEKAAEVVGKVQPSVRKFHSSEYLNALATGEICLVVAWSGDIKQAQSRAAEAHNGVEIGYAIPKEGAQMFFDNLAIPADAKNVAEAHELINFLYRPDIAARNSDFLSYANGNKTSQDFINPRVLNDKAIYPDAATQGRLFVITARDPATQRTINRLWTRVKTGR
structure (smiles),measurement,setting,value
O=C(O)c1ccc(O)cc1 [4-hydroxybenzoic acid],ΔTm,RPA0668 (hbaE),"closely related derivatives, 4-hydroxybenzoic acid, salicylate, and benzaldehyde"
same,ΔTm,RPA0985,29.5 °C
same,ΔTm,RPA4029,17 °C
O=C(O)/C=C/c1ccccc1 [cinnamic acid],ΔTm,RPA1789,"one protein bound p-coumaric acid, ferulic acid, and cinnamic acid with good affinities"
COc1cc(/C=C/C(=O)O)ccc1O [ferulic acid],ΔTm,RPA1789,"one protein bound p-coumaric acid, ferulic acid, and cinnamic acid with good affinities"
O=P(O)(O)OC[C@H](O)CO [glycerol-3-phosphate],ΔTm,RPA0058,"RPA0058 and RPA4780 exhibited specific stabilization by glycerol-3-phosphate and phosphate, respectively"
NCC(=O)O [glycine],ΔTm,RPA3810,"RPA3810, shifted primarily with amino acids with preferences for alanine, glycine and serine"
O=C(O)/C=C/c1ccc(O)cc1 [p-coumaric acid],ΔTm,RPA1789,"one protein bound p-coumaric acid, ferulic acid, and cinnamic acid with good affinities"
O=P(O)(O)O [phosphate],ΔTm,RPA4780,"RPA0058 and RPA4780 exhibited specific stabilization by glycerol-3-phosphate and phosphate, respectively"
NCCCCN [putrescine],ΔTm,RPA2014,indeed shifted with putrescine preferentially over spermine
O=C(O)c1ccccc1O [salicylic acid],ΔTm,RPA0668 (hbaE),"closely related derivatives, 4-hydroxybenzoic acid, salicylate, and benzaldehyde"
NCCCNCCCCNCCCN [spermine],ΔTm,RPA2014; low affinity,spermine still binds this protein with low affinity in the FTS assay
